Data: PubChem BioAssay (NCI)
Several values for one entry are separate records, joined by “and”; a condition that tells them apart may be missing. Equal values may be shown once.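 The compound was tested at five concentrations on cells cultured in 96-well plates, with a 48-hour exposure period. GI50 is the concentration that inhibits growth by half. The concentration for full growth arrest is given as TGI.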

What was measured:
Assay in all cases: growth of human tumour cells (NCI), 48 h
[1] = system: CAKI-1 renal
[2] = system: CCRF-CEM leukemia
[3] = system: EKVX NSCLC
[4] = system: HOP-92 NSCLC
[5] = system: MCF7 breast
[6] = system: MDA-MB-231 breast
[7] = system: MOLT-4 leukemia
[8] = system: OVCAR-3 ovarian
[9] = system: SK-MEL-2 melanoma
[10] = system: T-47D breast

SMILES	GI50 [1]	TGI [1]	GI50 [2]	TGI [2]	GI50 [3]	TGI [3]	GI50 [4]	TGI [4]	GI50 [5]	TGI [5]	GI50 [6]	TGI [6]	GI50 [7]	TGI [7]	GI50 [8]	TGI [8]	GI50 [9]	TGI [9]	GI50 [10]	TGI [10]
COc1ccc2cc(C(=O)/C=C/c3cccc(Cl)c3Cl)ccc2c1	5.6 µM	80.6 µM	52.6 µM	> 100 µM	20.1 µM	> 100 µM	22.1 µM	> 79.7 µM	1.28 µM	> 100 µM	12.2 µM	39.6 µM	27.5 µM	> 100 µM	7.87 µM	30.1 µM	> 50.9 µM	98.3 µM	> 59 µM	> 100 µM
NC1=NC(c2ccccc2)N=C(Nc2ccccc2)N1 (stereo not drawn)	> 100 µM	> 100 µM	> 100 µM	> 100 µM	> 100 µM	> 100 µM	> 100 µM	> 100 µM	38.5 µM	> 100 µM	> 100 µM	> 100 µM	> 100 µM	> 100 µM	32 µM	> 100 µM	> 100 µM	> 100 µM	> 100 µM	> 100 µM
C(CCc1nnc2c(n1)CCCC2)Cc1nnc2c(n1)CCCC2		> 100 µM		> 100 µM		> 100 µM		> 100 µM		> 100 µM		> 100 µM		> 100 µM		> 100 µM		> 100 µM		> 100 µM
CN(C)CCNC(=O)c1cccc2cc3ccccc3nc12	0.62 µM	3.14 µM	1.37 µM	> 32.1 µM	2.25 µM	7.81 µM	1.24 µM	5.41 µM	0.612 µM	11.4 µM	2.35 µM	9.65 µM	0.399 µM	7.95 µM	1.36 µM	4.22 µM	2.27 µM	4.34 µM	1.95 µM	10.6 µM
COC(=O)c1ccc(=O)c2nc3/c(=C/O)c(O)cc(=O)c3[nH]c12	0.581 µM	12.8 µM and 12.6 µM	0.397 µM	> 100 µM and 17.2 µM	0.557 µM	8.52 µM and 14.2 µM		6.03 µM and 11.1 µM	0.652 µM	17.5 µM and 22.8 µM	3.57 µM	19.3 µM and 19.2 µM	0.562 µM	12.1 µM and > 60.8 µM	1.04 µM	25.7 µM and 15 µM	2.27 µM	15 µM and 16.7 µM	1.29 µM	8.65 µM and 48.2 µM
C=C(CN1CCN(c2cccc(C(F)(F)F)c2)CC1)c1ccc(C(=O)Nc2ccccc2N)cc1	0.625 µM	> 17.6 µM	0.335 µM	> 50 µM	2.92 µM	19.4 µM	1.51 µM	17.8 µM	1.25 µM	> 27.5 µM	0.941 µM	3.39 µM	0.13 µM	1.29 µM	0.545 µM	6.2 µM	3.44 µM	32.2 µM	13.2 µM	> 50 µM
CC[C@@]1(O)C(=O)OCc2c1cc1n(c2=O)Cc2cc3cc(OC)ccc3nc2-1		0.0908 µM	0.00232 µM		1.1 µM	> 100 µM	0.0251 µM	0.084 µM and 0.41 µM		0.196 µM	0.735 µM		0.0038 µM	0.0289 µM	0.367 µM and 0.747 µM	5.73 µM and 4.54 µM		0.529 µM	0.0185 µM	
CS(=O)(=O)N1CCN(Cc2cc3nc(-c4cccc5[nH]ncc45)nc(N4CCOCC4)c3s2)CC1 (tested in a mixture with another compound)	0.0769 µM	0.462 µM	0.272 µM		0.087 µM		0.114 µM	0.829 µM	0.0509 µM		1.49 µM	> 100 µM	0.0608 µM		0.0615 µM	0.586 µM	0.753 µM	6.67 µM	0.0207 µM	0.105 µM
O=S(=O)(NC(=S)Nc1ccccc1)c1ccc(N2N=C3c4ccccc4CC3C2c2cccs2)cc1 (stereo not drawn)	18.5 µM	43.8 µM	30.5 µM	85.9 µM	19.5 µM	54.4 µM	24.9 µM	71.7 µM	3.7 µM	> 100 µM	24.8 µM	62.3 µM	17.5 µM	> 100 µM	17.2 µM	46.9 µM	59.9 µM	> 100 µM	> 100 µM	> 100 µM
C=C(CNCCc1ccc(O)cc1)[C@@H]1CC[C@]2(CO)CC[C@]3(C)[C@H](CC[C@@H]4[C@@]5(C)CCC(=O)C(C)(C)[C@@H]5CC[C@]43C)[C@@H]12	1.57 µM	2.96 µM	1.92 µM	5.26 µM	1.7 µM	3.24 µM	1.01 µM	2.26 µM	1.87 µM	3.84 µM	1.76 µM	3.2 µM	1.96 µM	4.47 µM	1.67 µM	3.08 µM	1.75 µM	3.27 µM	1.72 µM	4 µM
NC(=O)c1[nH]nc(C2OC(CO)C(O)C2O)c1O (stereo not drawn)		158 µM		2360 µM		1960 µM		279 µM		1060 µM		670 µM		386 µM		424 µM		843 µM		> 2990 µM
C=C1C(=O)O[C@H]2[C@H]1CC/C(COC(=O)C(=O)c1c[nH]c3ccc(OC)cc13)=C\CC[C@@]1(C)O[C@@H]21	9.23 µM	23.3 µM	2.47 µM	23 µM	9.85 µM	24.7 µM	1.74 µM	3.85 µM	3.69 µM	16.9 µM	6.27 µM	12 µM	5.31 µM	16 µM	1.87 µM	3.42 µM		> 20.4 µM	6.98 µM	12.4 µM
O=C1/C(=C/c2ccccc2)SC(=Nc2ccccc2)N1Nc1ccccc1	13.7 µM	> 100 µM	4.07 µM	> 100 µM	7.28 µM	> 100 µM	3.6 µM	42.2 µM	7.91 µM	83.5 µM	18.7 µM	> 100 µM	5.14 µM	> 100 µM	10.2 µM	91.2 µM	14.9 µM	43.7 µM	5.41 µM	> 100 µM
